Results on two compounds are retold here after article PMC3548404 (Nature, 2010).

In test [1] the target is T1, AtSLAC1 (Arabidopsis thaliana, UniProt Q9LD83).
T1 sequence (Q9LD83 1-556): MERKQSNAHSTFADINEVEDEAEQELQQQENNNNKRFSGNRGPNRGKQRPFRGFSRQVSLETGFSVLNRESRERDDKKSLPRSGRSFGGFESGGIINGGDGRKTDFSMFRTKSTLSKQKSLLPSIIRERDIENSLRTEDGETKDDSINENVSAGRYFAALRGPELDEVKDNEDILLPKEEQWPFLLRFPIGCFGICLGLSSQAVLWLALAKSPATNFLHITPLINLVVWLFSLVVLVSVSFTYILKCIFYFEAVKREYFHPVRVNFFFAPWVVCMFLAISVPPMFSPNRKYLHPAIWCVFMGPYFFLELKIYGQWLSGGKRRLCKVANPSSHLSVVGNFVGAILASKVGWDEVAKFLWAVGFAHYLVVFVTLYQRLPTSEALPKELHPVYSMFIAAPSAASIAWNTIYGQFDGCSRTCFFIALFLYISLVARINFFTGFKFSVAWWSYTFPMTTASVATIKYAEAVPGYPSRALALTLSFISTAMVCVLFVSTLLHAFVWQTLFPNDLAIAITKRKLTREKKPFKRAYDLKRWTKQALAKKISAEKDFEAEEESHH
To be noted: 30 mM CsCl bath, pH 5.6; permeant anion; no AtOST1.

Test [2] addresses T1, AtSLAC1. Description: two-electrode voltage clamp, Xenopus oocytes. The format is cell-based. To be noted: 50 mM sodium salt in bath, pH 5.6; permeant anion. For orientation: Two-electrode voltage clamp holds a large cell at a set potential and records current.

The structures appear in SMILES notation.

As to `Cl` [chloride], at AtSLAC1 [1], the “chloride current at -90 mV” value is given as “We observed modest-sized chloride currents with wild-type AtSLAC1 cRNA”. In the case of `O=[N+]([O-])O` [nitrate], the “P[X]/P[Cl]” value at AtSLAC1 [2] is “selective among anions, with greater permeability for nitrate than for chloride”.
